Results on one molecule are retold here after patent publication US20210161855A1, “5-LIPOXYGENASE ANTAGONISTS” (INSTITUTO DE MEDICINA MOLECULAR JOÃO LOBO ANTUNES, priority 2017, published 2021).

Experiment [1] concerns the target T1, 5-LO (Homo sapiens, UniProt P09917).
T1 sequence (P09917 1-674): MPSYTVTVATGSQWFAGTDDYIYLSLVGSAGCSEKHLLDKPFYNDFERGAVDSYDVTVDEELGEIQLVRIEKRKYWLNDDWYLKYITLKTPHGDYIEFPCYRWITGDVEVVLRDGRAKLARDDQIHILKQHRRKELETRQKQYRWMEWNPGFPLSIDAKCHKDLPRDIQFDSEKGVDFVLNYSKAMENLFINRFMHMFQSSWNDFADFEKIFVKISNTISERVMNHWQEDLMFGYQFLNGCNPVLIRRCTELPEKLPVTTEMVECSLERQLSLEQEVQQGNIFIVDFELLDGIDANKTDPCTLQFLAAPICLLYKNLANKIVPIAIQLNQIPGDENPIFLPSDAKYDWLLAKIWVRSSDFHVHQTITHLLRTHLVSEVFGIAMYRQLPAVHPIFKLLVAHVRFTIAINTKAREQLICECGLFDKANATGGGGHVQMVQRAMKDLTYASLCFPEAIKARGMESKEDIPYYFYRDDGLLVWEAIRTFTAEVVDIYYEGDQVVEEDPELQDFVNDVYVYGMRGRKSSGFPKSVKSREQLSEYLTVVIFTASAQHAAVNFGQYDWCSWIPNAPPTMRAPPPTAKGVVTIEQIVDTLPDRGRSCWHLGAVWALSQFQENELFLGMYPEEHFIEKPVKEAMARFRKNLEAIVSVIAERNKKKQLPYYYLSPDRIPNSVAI
As to the kind of experiment: 5-LO activity in neutrophil homogenates. The experiment is classed as biochemical. On the set-up: endogenous in cells; host or cells: neutrophils isolated from peripheral blood of healthy adult volunteers; intact or sonicated homogenates. The settings on record: n=3. The protocol:
Peripheral blood (University Hospital Jena, Germany) was withdrawn from healthy adult volunteers with consent that had not taken any anti-inflammatory drugs during the last 10 days, by venipuncture in heparinized tubes (16 IE heparin/mL blood). The blood was centrifuged at 4000 g for 20 min at 20° C. for preparation of leukocyte concentrates. Leukocyte concentrates were then subjected to dextran sedimentation and centrifugation on lymphocyte separation medium (LSM 1077, PAA, Colbe, Germany). Contaminating erythrocytes of pelleted neutrophils were removed by hypotonic Iysis. Neutrophils were then washed twice in ice-cold PBS and finally resuspended in PBS pH 7.4 containing 1 mg/mL glucose or in PBS pH 7.4 containing 1 mg/mL glucose plus 1 mM CaCl2 (PGC buffer) (purity>96-97%).
For analysis of 5-LO product formation in corresponding homogenates, neutrophils were resuspended in PBS containing 1 mM EDTA for 5 min at 4° C. and sonicated (4×10 s, 4° C.). Homogenates, corresponding to 5×10^6 cells/mL, were incubated with the test compounds or vehicle (0.1% DMSO) with or without 1 mM DTT for 15 min at 4° C., pre-warmed for 30 s at 37° C., and the reaction was started by the addition of 2 mM CaCl2 plus the indicated concentrations of AA (routinely 20 μM). The reaction was stopped after 10 min and the samples were analyzed as described for intact cells above.
Data are expressed as mean±S.E.M. IC50 values were calculated from averaged measurements at 6 different concentrations of the compound by nonlinear regression using GraphPad Prism software (San Diego, Calif.) one site binding competition. Statistical evaluation of the data was performed by one-way ANOVA followed by a Tukey-Kramer post-hoc test for multiple comparisons respectively. A p value<0.05 (*) was considered significant.

Experiment [2] concerns HEL. Nature of the experiment: Cell viability, AML model HEL (FIG. 9a). The experiment is classed as cell-based. The conditions noted are these: Homo sapiens, n=3.

Like-named read-outs stand apart in the source and are kept apart here.

Take `CC1(C)CCC2=C(O1)c1ccccc1C(=O)C2=O` [Compound 1, 3,4-dihydro-2,2-dimethyl-2H-naphtho[1,2-b]pyran-5,6-dione]: the IC50 was 0.09 µM in experiment [1] (1 mM DTT, read-out: IC50 (with DTT), 5-LO activity in neutrophil homogenates); 5.2 µM in experiment [1] (absence of DTT, read-out: IC50 (without DTT), 5-LO activity in neutrophil homogenates); 0.9 µM in experiment [2].

As usually defined, the IC50 is the concentration needed to halve the response being measured.
